Source: PubChem BioAssay (NCI)
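Step 1: Grow cells in 96-well plates. Step 2: Expose to compound for 48 hours at 5 concentrations. Step 3: Interpolate endpoints linearly; if unreached, use highest concentration. At the GI50, growth is halved. The concentration for full growth arrest is given as TGI.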

What was measured:
Assay in all cases: NCI tumour cell line growth inhibition, 48 h
786-0 renal = test system: 786-0 renal
A498 renal = test system: A498 renal
A549 NSCLC = test system: A549 NSCLC
ACHN renal = test system: ACHN renal
BT-549 breast = test system: BT-549 breast
CAKI-1 renal = test system: CAKI-1 renal
CCRF-CEM leukemia = test system: CCRF-CEM leukemia
COLO 205 colon = test system: COLO 205 colon
DU-145 prostate = test system: DU-145 prostate
EKVX NSCLC = test system: EKVX NSCLC
HCC-2998 colon = test system: HCC-2998 colon
HCT-116 colon = test system: HCT-116 colon
HCT-15 colon = test system: HCT-15 colon
HL-60(TB) leukemia = test system: HL-60(TB) leukemia
HOP-62 NSCLC = test system: HOP-62 NSCLC
HS 578T breast = test system: HS 578T breast
HT29 colon = test system: HT29 colon
IGROV1 ovarian = test system: IGROV1 ovarian
K-562 leukemia = test system: K-562 leukemia
KM12 colon = test system: KM12 colon
LOX IMVI melanoma = test system: LOX IMVI melanoma
M14 melanoma = test system: M14 melanoma
MALME-3M melanoma = test system: MALME-3M melanoma
MCF7 breast = test system: MCF7 breast
MDA-MB-231 breast = test system: MDA-MB-231 breast
MDA-MB-435 = test system: MDA-MB-435
MDA-MB-468 breast = test system: MDA-MB-468 breast
MOLT-4 leukemia = test system: MOLT-4 leukemia
NCI-H226 lung = test system: NCI-H226 lung

Cc1ccc2nc3c(nc2c1)c1cc(I)ccc1n3CCN(C)C
GI50 (786-0 renal): 5.54 µM
TGI (786-0 renal): 19.1 µM
GI50 (A498 renal): 14.2 µM
TGI (A498 renal): 29.3 µM
GI50 (A549 NSCLC): 3.66 µM
TGI (A549 NSCLC): 14.2 µM
GI50 (ACHN renal): 3.05 µM
TGI (ACHN renal): 13.2 µM
GI50 (BT-549 breast): 14.8 µM
TGI (BT-549 breast): 28.8 µM
GI50 (CAKI-1 renal): 3.78 µM
TGI (CAKI-1 renal): 17.9 µM
GI50 (CCRF-CEM leukemia): 12.6 µM
TGI (CCRF-CEM leukemia): 28.7 µM
GI50 (COLO 205 colon): 3.56 µM
TGI (COLO 205 colon): 16.7 µM
GI50 (DU-145 prostate): 5.04 µM
TGI (DU-145 prostate): 16.8 µM
GI50 (EKVX NSCLC): 7.08 µM
TGI (EKVX NSCLC): 20.9 µM
GI50 (HCC-2998 colon): 3.81 µM
TGI (HCC-2998 colon): 15.3 µM
GI50 (HCT-116 colon): 3.6 µM
TGI (HCT-116 colon): 14.4 µM
GI50 (HCT-15 colon): 3.14 µM
TGI (HCT-15 colon): 12.9 µM
GI50 (HL-60(TB) leukemia): 3.16 µM
TGI (HL-60(TB) leukemia): 20.5 µM
GI50 (HOP-62 NSCLC): 4.81 µM
TGI (HOP-62 NSCLC): 20.5 µM
GI50 (HS 578T breast): 12.5 µM
TGI (HS 578T breast): 34.3 µM
GI50 (HT29 colon): 3.42 µM
TGI (HT29 colon): 13.4 µM
GI50 (IGROV1 ovarian): 4.87 µM
TGI (IGROV1 ovarian): 18.5 µM
GI50 (K-562 leukemia): 4.06 µM
TGI (K-562 leukemia): 18.8 µM
GI50 (KM12 colon): 4.13 µM
TGI (KM12 colon): 16.8 µM
GI50 (LOX IMVI melanoma): 3.72 µM
TGI (LOX IMVI melanoma): 14.4 µM
GI50 (M14 melanoma): 11.1 µM
TGI (M14 melanoma): 25.4 µM
GI50 (MALME-3M melanoma): 10.3 µM
TGI (MALME-3M melanoma): 23.1 µM
GI50 (MCF7 breast): 3.35 µM
TGI (MCF7 breast): 13.9 µM
GI50 (MDA-MB-231 breast): 4.25 µM
TGI (MDA-MB-231 breast): 18 µM
GI50 (MDA-MB-435): 7.41 µM
TGI (MDA-MB-435): 20 µM
GI50 (MDA-MB-468 breast): 4.12 µM
TGI (MDA-MB-468 breast): 17.3 µM
GI50 (MOLT-4 leukemia): 7.02 µM
TGI (MOLT-4 leukemia): 24.8 µM
GI50 (NCI-H226 lung): 5.98 µM
